These results are taken from PubChem BioAssay (NCI).

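Where inhibition never reached the appropriate level, the endpoint shown equals the highest concentration tested. Otherwise, values were interpolated linearly from a five-concentration, 48-hour dose response in 96-well plates. The concentration for 50% growth inhibition is given as GI50. TGI: total growth inhibition.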

Among the test systems are NCI-H522 lung; HOP-62 NSCLC; DLD-1 colon; SK-OV-3 ovarian; M19-MEL melanoma; SW-620 colon; CCRF-CEM leukemia; RPMI-8226 leukemia; DU-145 prostate; BT-549 breast.
Assay in all cases: NCI-60 cell line screen, 48 h

As for `COC1CCC(OS(C)(=O)=O)C(CO)O1` (stereo unspecified), the TGI in the test with NCI-H522 lung, with HOP-62 NSCLC, with DLD-1 colon, in the test on SK-OV-3 ovarian, in the test with M19-MEL melanoma and in the test on SW-620 colon was more than 100 µM each time. The TGI with CCRF-CEM leukemia was more than 100 µM.
With `CCN(CC)CCCNc1nccc2c(C)c3c(cc12)c1cnccc1n3C`, the TGI amounted to 0.571 µM in the test with HOP-62 NSCLC; 0.266 µM in the test with DLD-1 colon; 2.73 µM in the test on SK-OV-3 ovarian; 2.67 µM in the test with M19-MEL melanoma; 1.48 µM in the test with SW-620 colon; 0.415 µM in the test with CCRF-CEM leukemia.
As to `O=C(C(=O)c1cc2ccccc2[nH]1)c1cc2ccccc2[nH]1`, the TGI with NCI-H522 lung was 114 µM; in the test on RPMI-8226 leukemia, more than 110 µM; in the test with HOP-62 NSCLC, more than 347 µM; in the test with DLD-1 colon, more than 347 µM; in the test on SK-OV-3 ovarian, more than 347 µM; in the test with M19-MEL melanoma, more than 347 µM. Besides, the TGI in the test with SW-620 colon and in the test on CCRF-CEM leukemia was more than 347 µM throughout.
Take `Cc1cnc2ccc(C)c([N+](=O)[O-])c2c1NCCCN(C)C`: the TGI with NCI-H522 lung, in the test on RPMI-8226 leukemia, in the test with HOP-62 NSCLC, in the test on SK-OV-3 ovarian, in the test with M19-MEL melanoma and in the test with SW-620 colon was more than 100 µM in each case. For the same compound, the TGI in the test with CCRF-CEM leukemia is more than 100 µM.
As for `O=c1c2ccccc2sc2c(NCCCNCCO)nc3ccccc3c12`, the GI50 was 1.6 µM in the test on DU-145 prostate; 2.81 µM in the test with BT-549 breast; 1.82 µM in the test on NCI-H522 lung; 1.92 µM with RPMI-8226 leukemia; 1.34 µM in the test with HOP-62 NSCLC; 2.14 µM in the test with SK-OV-3 ovarian. Besides, the GI50 in the test on SW-620 colon is 1.31 µM; with CCRF-CEM leukemia, 1.59 µM. In addition, the TGI in the test with DU-145 prostate is 3.33 µM; in the test with BT-549 breast, 11.1 µM; with NCI-H522 lung, 3.57 µM; in the test on RPMI-8226 leukemia, 4.89 µM; in the test on HOP-62 NSCLC, 2.82 µM; in the test on SK-OV-3 ovarian it was 7.31 µM. In addition, the figures for the TGI with SW-620 colon and in the test on CCRF-CEM leukemia were 2.74 µM and 3.57 µM, respectively.
With `O=C1NC(=C(Cl)Cl)/C(=N/S(=O)(=O)N2CCCCC2)N1`, the GI50 with DU-145 prostate is 3.54 µM; with BT-549 breast it was 2.33 µM; in the test on NCI-H522 lung, 1.59 µM; with RPMI-8226 leukemia, 0.553 µM; in the test with HOP-62 NSCLC it was 2.92 µM; with SK-OV-3 ovarian, 15.4 µM. For the same compound, the values for the GI50 with SW-620 colon and with CCRF-CEM leukemia were 2.11 µM and 2.19 µM, respectively. Moreover, the TGI in the test with DU-145 prostate was 12.2 µM; with BT-549 breast, 5.62 µM; with NCI-H522 lung, 3.39 µM; with RPMI-8226 leukemia, 4.23 µM; in the test with HOP-62 NSCLC it was 9.07 µM; in the test with SK-OV-3 ovarian it was 28.8 µM. In addition, the TGI with SW-620 colon came to 4.17 µM; with CCRF-CEM leukemia, 4.92 µM.
On to `Cc1c(-c2cnccn2)ssc1=S`, for which the TGI was more than 100 µM in the test with DU-145 prostate; 68.5 µM in the test with BT-549 breast; more than 89.8 µM in the test with NCI-H522 lung; more than 100 µM with RPMI-8226 leukemia; 92 µM in the test on HOP-62 NSCLC; 93 µM with SK-OV-3 ovarian. The figures for the TGI in the test on SW-620 colon and with CCRF-CEM leukemia were more than 100 µM and more than 77.4 µM, respectively.
`Cc1cc2nc(NCCN)n(Cc3ccc(F)c(Cl)c3)c2cc1C`: the GI50 in the test on DU-145 prostate is 14.1 µM; in the test with BT-549 breast, 14.8 µM; in the test on NCI-H522 lung, 19.5 µM; in the test on RPMI-8226 leukemia, 3.95 µM; in the test with HOP-62 NSCLC, 14.2 µM; with SK-OV-3 ovarian, 16.9 µM. In addition, the results for the GI50 in the test on SW-620 colon and with CCRF-CEM leukemia were 3.31 µM and 12.7 µM, respectively. The TGI was 27.4 µM in the test on DU-145 prostate; 30.2 µM in the test with BT-549 breast; 35.1 µM in the test on NCI-H522 lung; 15.1 µM with RPMI-8226 leukemia; 28.5 µM in the test with HOP-62 NSCLC; 30.8 µM with SK-OV-3 ovarian. In addition, the figures for the TGI with SW-620 colon and in the test with CCRF-CEM leukemia were 10.8 µM and 29.3 µM, respectively.
Regarding `O=C(O)c1cc(-c2ccc3cc4c(cc3c2)OCO4)nc2ccccc12`, the TGI with DU-145 prostate, in the test on BT-549 breast, in the test on NCI-H522 lung, in the test with RPMI-8226 leukemia, in the test with HOP-62 NSCLC and in the test on SK-OV-3 ovarian was more than 100 µM each time. In addition, the TGI in the test with SW-620 colon is more than 100 µM; in the test with CCRF-CEM leukemia, 35.4 µM.
On to `COc1c/c(=C2\C=c3ccccc3=N2)[nH]/c1=C\c1[nH]c(C)cc1C`, for which the GI50 in the test with DU-145 prostate is 0.0174 µM; with BT-549 breast, 0.0319 µM; with NCI-H522 lung it was 0.493 µM; in the test on RPMI-8226 leukemia, less than 0.0151 µM; in the test with HOP-62 NSCLC it was 0.468 µM; in the test on SK-OV-3 ovarian it was 1.54 µM. For the same compound, the GI50 in the test on SW-620 colon and with CCRF-CEM leukemia was less than 0.01 µM in each case. Also, the TGI with DU-145 prostate was more than 81.4 µM; in the test with BT-549 breast, 31.3 µM; in the test with NCI-H522 lung, more than 41.9 µM; in the test on RPMI-8226 leukemia, 2.9 µM; with HOP-62 NSCLC it was 6.87 µM; with SK-OV-3 ovarian, more than 88.7 µM. For the same compound, the TGI came out at 51.4 µM with SW-620 colon and 6.64 µM with CCRF-CEM leukemia.
Take `O=C1C=C(Nc2ccc(Cl)cc2Cl)c2ccccc2C1=O`: the TGI in the test on NCI-H522 lung was more than 100 µM; with RPMI-8226 leukemia it was more than 100 µM; in the test with HOP-62 NSCLC it was more than 100 µM; with DLD-1 colon, more than 100 µM; in the test with SK-OV-3 ovarian, more than 100 µM; with M19-MEL melanoma, 26.3 µM. Moreover, the TGI in the test with SW-620 colon is more than 100 µM; with CCRF-CEM leukemia it was 85 µM.
Consider `CN[C@H]1CN(c2ccc3c(=O)c(C(=O)O)cn(-c4nccs4)c3n2)C[C@@H]1OC`, for which the GI50 was 1.28 µM in the test on DU-145 prostate; 0.758 µM with BT-549 breast; 0.733 µM in the test on NCI-H522 lung; 1.08 µM in the test on RPMI-8226 leukemia; 0.6 µM in the test with HOP-62 NSCLC; 1.08 µM with SK-OV-3 ovarian. Besides, the GI50 was 0.633 µM in the test with SW-620 colon and 0.316 µM with CCRF-CEM leukemia. In addition, the TGI in the test with DU-145 prostate was 5.28 µM; in the test with BT-549 breast it was 3.05 µM; with NCI-H522 lung it was 2.98 µM; in the test on RPMI-8226 leukemia it was more than 24 µM; in the test on HOP-62 NSCLC, 3.4 µM; in the test with SK-OV-3 ovarian it was 5.29 µM. Also, the TGI in the test on SW-620 colon was 3.54 µM; in the test on CCRF-CEM leukemia, more than 22.9 µM.
On to `COC(=O)c1cc2c(=O)n(C)c3ccccc3n2c1C(=O)OC`, for which the TGI with NCI-H522 lung is 73.7 µM; in the test on RPMI-8226 leukemia it was more than 100 µM; with HOP-62 NSCLC, 36.9 µM; in the test with DLD-1 colon, more than 100 µM; in the test on SK-OV-3 ovarian it was 66.8 µM; in the test with M19-MEL melanoma, more than 100 µM. The TGI in the test on SW-620 colon and in the test with CCRF-CEM leukemia was more than 100 µM throughout.
`O=C(O)CCNCC(=O)O`: the TGI with DU-145 prostate, in the test on BT-549 breast, in the test on NCI-H522 lung, in the test with RPMI-8226 leukemia, with HOP-62 NSCLC and in the test with SK-OV-3 ovarian was more than 100 µM each time. In addition, the TGI with SW-620 colon and in the test with CCRF-CEM leukemia was more than 100 µM in each case.
`Oc1c(Cl)cc(Cl)c(Cl)c1CNCCNCc1c(O)c(Cl)cc(Cl)c1Cl`: the GI50 was 2.09 µM in the test on DU-145 prostate; 2.67 µM in the test with BT-549 breast; 1.28 µM in the test on NCI-H522 lung; 1.51 µM in the test with RPMI-8226 leukemia; 0.894 µM in the test with HOP-62 NSCLC; 1.48 µM with SK-OV-3 ovarian. In addition, the GI50 in the test with SW-620 colon is 1.71 µM; in the test with CCRF-CEM leukemia, 0.231 µM. Moreover, the TGI in the test with DU-145 prostate is 12.6 µM; in the test on BT-549 breast it was 10 µM; with NCI-H522 lung, 8.24 µM; in the test on RPMI-8226 leukemia, more than 50 µM; in the test with HOP-62 NSCLC, 8.3 µM; with SK-OV-3 ovarian, 7.7 µM. For the same compound, the TGI in the test on SW-620 colon and in the test with CCRF-CEM leukemia was more than 50 µM in each case.
Take `COc1ccc(/C=C\c2cc(OC)c(OC)c(OC)c2)cc1OCC(=O)Nc1nc2ccc(F)cc2s1`: the GI50 in the test with DU-145 prostate is 8.97 µM; in the test with BT-549 breast, 16.7 µM; with NCI-H522 lung, 2.92 µM; in the test with RPMI-8226 leukemia, 6.36 µM; with HOP-62 NSCLC, 5.7 µM; in the test on SK-OV-3 ovarian, 8 µM. In addition, the GI50 was 65.1 µM in the test on SW-620 colon and 3.7 µM in the test on CCRF-CEM leukemia. In addition, the TGI in the test on DU-145 prostate, with BT-549 breast, in the test with NCI-H522 lung, in the test on RPMI-8226 leukemia, with HOP-62 NSCLC and in the test on SK-OV-3 ovarian was more than 100 µM in each case. For the same compound, the TGI in the test with SW-620 colon and with CCRF-CEM leukemia was more than 100 µM in each case.
For `CCc1ccc(Oc2c(-c3ccc(OCc4ccc(Cl)cc4)cc3O)n[nH]c2C(F)(F)F)cc1`, the GI50 is 2.64 µM in the test on DU-145 prostate; 2.04 µM in the test with BT-549 breast; 1.72 µM in the test with NCI-H522 lung; 2.33 µM in the test with RPMI-8226 leukemia; 1.87 µM with HOP-62 NSCLC; 2.43 µM with SK-OV-3 ovarian. Moreover, the figures for the GI50 in the test on SW-620 colon and in the test on CCRF-CEM leukemia were 2.05 µM and 2.92 µM, respectively. For the same compound, the TGI was 7.44 µM in the test with DU-145 prostate; 3.95 µM with BT-549 breast; 4.33 µM with NCI-H522 lung; 5.25 µM in the test on RPMI-8226 leukemia; 3.48 µM with HOP-62 NSCLC; 7.01 µM in the test with SK-OV-3 ovarian. In addition, the TGI with SW-620 colon is 4.45 µM; in the test with CCRF-CEM leukemia, 7.22 µM.
Consider `CC(C)C[C@H](NC(=O)CNC(=O)c1cc(Cl)ccc1Cl)B(O)O`, for which the GI50 was less than 0.0262 µM in the test with DU-145 prostate; less than 0.0145 µM in the test with BT-549 breast; 0.0164 µM in the test on NCI-H522 lung; less than 0.01 µM in the test on RPMI-8226 leukemia; 0.0472 µM in the test on HOP-62 NSCLC; 0.0997 µM with SK-OV-3 ovarian. Also, the GI50 is less than 0.0173 µM with SW-620 colon and 0.0203 µM with CCRF-CEM leukemia. In addition, the TGI in the test on DU-145 prostate came to 15.3 µM; with BT-549 breast it was 0.137 µM; in the test on NCI-H522 lung it was 0.0414 µM; with RPMI-8226 leukemia, 0.0162 µM; in the test with HOP-62 NSCLC, 0.429 µM; with SK-OV-3 ovarian it was 8.26 µM. The TGI in the test on CCRF-CEM leukemia was more than 100 µM.
